Results reported in publication PMC3661926 (Acta Neuropathologica, 2013).
Read-outs that look alike come from different tables or passages of the source.

Assays:
139A = details: mouse, in vivo, cited from earlier work
α-synuclein (α-syn) = biological target: T1, α-synuclein (α-syn) (Homo sapiens, UniProt P37840); experiment: α-synuclein in vitro oligomer formation assay (SIFT); type: biochemical; details: read-out: % inhibition α-syn SIFT
T1 construct: made in house
Experimental: Expression and purification of recombinant wild-type α-synuclein (α-syn) was performed according to established protocols. Fluorescent labelling of α-syn and quality control were performed as described.
The α-syn aggregation assay was conducted with minor modifications as published previously. […] The concentration of α-syn was approximately 20 nM. In all experiments, α-syn aggregation was induced by final concentrations of 1 % DMSO and 10 μM FeCl3. Compounds were diluted into the assay mixture from 10-fold stock solutions containing 10 % DMSO (v/v), resulting in a final concentration of 1 % DMSO in all samples. “Low control” measurements for threshold setting were obtained without FeCl3 and DMSO. Experiments were started by diluting the 5-fold stock solution of fluorescently labelled α-syn in 50 mM Tris-buffer, pH 7.0, containing 1 % DMSO, 10 μM FeCl3 and compounds in concentrations ranging from 1–10 μM.
Aggregation of α-syn was measured by scanning for intensely fluorescent targets (SIFT). […] Excitation power was 200 μW at 488 nm and 300 μW at 633 nm. Measurement time was 10 s. Scanning parameters were set to 100 μm scan path length, 50 Hz beam scanner frequency, and 2,000 μm positioning table movement. The frequency of specific combinations of “green” and “red” photon counts was recorded in a two-dimensional intensity distribution histogram, as described previously. Evaluation of SIFT data in two-dimensional intensity distribution histograms was performed by summing up the numbers of photons from high intensity bins using a two-dimensional SIFT software module (Evotec-Technologies). For threshold setting, non-aggregated reference samples were used. The photon count in bins above the threshold was considered aggregate signal.

RML scrapie = experiment: whole plant or invertebrate; type: in vivo, C57BL/6 mice; details: for inhibition in vivo at 1 mg: in Mus musculus, po, 2880 h, read-out: % inhibition PrP^Sc in vivo (a); for % inhibition PrP^Sc in vivo (b): PrP^Sc level in spleen 35 days after i.p. infection, 34 days treatment with 1 mg compound oral in peanut butter
actin = type: biochemical
[1] = biological target: PrP^Sc (RML prion strain) (Mus musculus, UniProt P04925); experiment: biochemical; details: read-out: % inhibition PrP^Sc PMCA
Chain of PrP^Sc (RML prion strain) (P04925 23-230 limits assumed): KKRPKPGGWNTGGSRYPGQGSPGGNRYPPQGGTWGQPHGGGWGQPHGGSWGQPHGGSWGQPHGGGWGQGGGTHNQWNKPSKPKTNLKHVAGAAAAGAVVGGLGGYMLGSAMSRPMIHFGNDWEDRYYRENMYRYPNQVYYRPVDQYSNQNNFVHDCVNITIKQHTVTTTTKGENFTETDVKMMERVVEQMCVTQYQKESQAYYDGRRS

[2] = mouse, in vivo, po
[3] = relative to high control, 10 μM compound, 1 % DMSO, 10 μM FeCl3

Fc1cccc(-c2nc(-c3ccc4c(c3)OCO4)no2)c1
melting point: 161 °C

Nc1ccc(-c2cc(-c3ccc(Cl)cc3)[nH]n2)cc1
melting point: 213 to 214 °C

Fc1ccc(F)c(-c2cc(-c3ccc4c(c3)OCO4)n[nH]2)c1
melting point: 225 to 226 °C

O=[N+]([O-])c1ccc(-c2cc(-c3cccc(Cl)c3)n[nH]2)cc1
melting point: 275 to 276 °C

COc1cc(/C=C/C(=O)CC(=O)/C=C/c2ccc(O)c(OC)c2)ccc1O [Curcumin]
Median/Mean* Survival Therapy (139A; po, 50 mg/kg): 208 days
difference of survival therapy vs control (139A; po, 50 mg/kg): 12 days

OCCN1CCN(CCCN2c3ccccc3Sc3ccc(C(F)(F)F)cc32)CC1 [Fluphenazine]
Median/Mean* Survival Therapy (139A; ip, 10 mg/kg): 205 days
difference of survival therapy vs control (139A; ip, 10 mg/kg): 35 days

CC[C@H](C)C(=O)O[C@H]1C[C@H](O)C=C2C=C[C@H](C)[C@H](CC[C@@H](O)C[C@@H](O)CC(=O)O)[C@H]21 [Pravastatin]
Median/Mean* Survival Therapy (139A; po, 200 mg/kg): 194 days
difference of survival therapy vs control (139A; po, 200 mg/kg): 17 days

CC(CN(C)C)CN1c2ccccc2CCc2ccccc21 (centres unmarked) [Trimipramine]
Median/Mean* Survival Therapy (139A; ip, 10 mg/kg): 210 days
difference of survival therapy vs control (139A; ip, 10 mg/kg): 40 days

Oc1ccc(-c2cc(-c3cccc(Br)c3)n[nH]2)cc1O [anle138c]
inhibition at 10 µM (α-synuclein (α-syn); [3]): 99%
inhibition in vivo at 1 mg (RML scrapie): < 10%
effect on actin polymerization (actin): do not affect actin polymerization
inhibition at 10 µM [1]: 19%

Br.Oc1cc(-c2cc(-c3cc(Br)cc(Br)c3)n[nH]2)cc(O)c1O [anle145c]
effect on actin polymerization (actin): do not affect actin polymerization

Fc1cccc(-c2cc(-c3ccc4c(c3)OCO4)n[nH]2)c1 [anle186b]
inhibition at 10 µM (α-synuclein (α-syn); [3]): < 10%
% inhibition PrP^Sc in vivo (c) (RML scrapie; PrP^Sc level in brain 106 days after i.c. infection, treatment 24 days: 14 days i.p. 0.84 mg, 2 × 5 days oral gavage 1 mg): 30^c %
change of PrPSc levels in brain, mixed application scheme (RML scrapie; from 80 dpi: 14 days i.p. 0.84 mg, 2 x 5 days gavage 1 mg, measured at 95 and 106 dpi): slight reduction of PrPSc accumulation
conc. brain [2]: 31.1 nmol/g
inhibition at 10 µM [1]: 48%

Ic1cccc(-c2cc(-c3ccc4c(c3)OCO4)n[nH]2)c1 [anle197b]
inhibition at 10 µM (α-synuclein (α-syn); [3]): < 10%
% inhibition PrP^Sc in vivo (b) (RML scrapie): <10^b %
inhibition at 10 µM [1]: 16%

c1cc2c(cc1-c1cc(-c3ccc4c(c3)OCO4)[nH]n1)OCO2 [anle232b]
inhibition at 10 µM (α-synuclein (α-syn); [3]): < 10%
inhibition in vivo at 1 mg (RML scrapie): 23%
inhibition at 10 µM [1]: 26%

FC(F)(F)c1cccc(-c2cc(-c3ccc4c(c3)OCO4)n[nH]2)c1 [anle236b]
inhibition at 10 µM (α-synuclein (α-syn); [3]): < 10%
inhibition in vivo at 1 mg (RML scrapie): 12%
conc. brain [2]: 39.3 nmol/g
inhibition at 10 µM [1]: < 10%

CN(C)c1ccc(-c2cc(-c3cccc(Br)c3)n[nH]2)cc1 [anle253b]
inhibition at 10 µM (α-synuclein (α-syn); [3]): 50%
inhibition in vivo at 1 mg (RML scrapie): 59%
effect on actin polymerization (actin): do not affect actin polymerization
conc. brain [2]: 2.1 nmol/g
inhibition at 10 µM [1]: 80%

Brc1cccc(-c2cc(-c3ccc4c(c3)CCO4)[nH]n2)c1 [sery312b]
inhibition at 10 µM (α-synuclein (α-syn)): < 10%
inhibition in vivo at 1 mg (RML scrapie): 13%
conc. brain [2]: 3,6 nmol/g
inhibition at 10 µM [1]: 42%

Clc1cccc(-c2cc(-c3ccc4c(c3)OCO4)n[nH]2)c1 [sery335b, 3-(1,3-Benzodioxol-5-yl)-5-(3-chlorophenyl)-1H-pyrazole]
inhibition at 10 µM (α-synuclein (α-syn); [3]): 90%
% inhibition PrP^Sc in vivo (b) (RML scrapie): 46%
inhibition in vivo at 1 mg (RML scrapie): 68%
conc. brain [2]: 29.6 nmol/g
inhibition at 10 µM [1]: 52%

Brc1cccc(-c2c[nH]c(-c3ccc4c(c3)OCO4)n2)c1 [sery345]
inhibition at 10 µM (α-synuclein (α-syn); [3]): 57%
inhibition in vivo at 1 mg (RML scrapie): < 10%
conc. brain [2]: 16.6 nmol/g
inhibition at 10 µM [1]: < 10%

Brc1ccc(-c2cc(-c3ccc4c(c3)OCO4)n[nH]2)cc1 [sery378b]
inhibition at 10 µM (α-synuclein (α-syn); [3]): 74%
inhibition in vivo at 1 mg (RML scrapie): 39%
conc. brain [2]: 26 nmol/g
inhibition at 10 µM [1]: 34%

Cl.Nc1ccc(-c2cc(-c3cccc(Br)c3)[nH]n2)cc1 [sery384]
inhibition at 10 µM (α-synuclein (α-syn)): 99%
inhibition in vivo at 1 mg (RML scrapie): < 10%
conc. brain [2]: 13,9 nmol/g
inhibition at 10 µM [1]: 55%

Brc1cccc(-c2cc(-c3ccc4[nH]cnc4c3)n[nH]2)c1 [sery417]
inhibition at 10 µM (α-synuclein (α-syn); [3]): < 10%
inhibition in vivo at 1 mg (RML scrapie): < 10%
conc. brain [2]: 0 nmol/g
inhibition at 10 µM [1]: 51%
